Paper PMC6327999, “Hydroxyl-substituted double Schiff-base condensed 4-piperidone/cyclohexanones as potential anticancer agents with biological evaluation” (Journal of Enzyme Inhibition and Medicinal Chemistry, 2019)

Legend:
[1] = test system: human acute mononuclear granulocyte leukemia (THP-1); assay: Cytotoxicity, MTT assay, THP-1; assay type: cell-based; conditions: for IC50: Homo sapiens, THP-1, MTT, 24 hours; for THP-1 SI: quotient of the IC50 values towards nonmalignant LO2 cells
Text: (§1) Compounds 2a–d, 3a–e, 4a–e, 5a–d, and 6a–c were screened against human neoplastic cell lines such as human lung carcinoma cells (A549), human gastric adenocarcinoma cells (SGC7901), human cervical carcinoma cells (HeLa), human liver hepatocellular carcinoma cell line (Hepg2), human chronic myelogenous leukemia cell line (K562), human acute mononuclear granulocyte leukemia (THP-1), human normal heptical cell line (LO2) (Table 1) using modified MTT assay (3-(4,5-dimethyl-2-thiazolyl)-2,5-diphenyl-2-H-tetrazolium bromide, MTT, Dojindo Laboratories, Tokyo, Japan). All cell lines were maintained at 37 °C in a humidified 5% CO2 and 95% air atmosphere. The HePG2 cell lines were cultured in DMEM containing 10% fetal bovine serum. Other cell lines were grown in medium 1640 and supplemented with 10% fetal bovine serum. […] Controls were prepared with 0.1% DMSO (v/v) only. The cells were seeded in a 96-well plate in 200 µL medium per well at a density of 1 × 10^4 cells/well for 24 hours. The cells were treated with serial concentrations of compound and incubated for 24 hours. Cells with only culture media were used as control. After the media was removed, 20 µL of MTT (5 mg/mL) was added then the plates were incubated for 4 hours at 37 °C in cell culture incubator. The MTT containing media were removed and then 150 µL of DMSO was added to dissolve the dark-blue formazan crystals. The optical density (OD) was measured by a multi-well plate reader (TECAN, Männedorf, Switzerland) at 570 nm. The results are expressed as a decrease in the cell viability (%) in comparison to untreated controls. The concentration of each compound was examined in triplicate, and the IC50 values are expressed in Table 1. The concentrations of the compounds were 50, 20, 10, 5, 2.5, 1, 0.5, 0.1, 0.05 and 0.01 µg/mL. Doxorubicin (DOX) and Curcumin were used as positive controls. […] The concentrations of curcumin used were 100, 50, 25, 12.5, 6.25, 3.125, 1, 0.5 and 0.1 µg/mL.

[2] = test system: human cervical carcinoma cells (HeLa); assay: Cytotoxicity, MTT assay, HeLa; assay type: cell-based; conditions: for IC50: Homo sapiens, HeLa, MTT, 24 hours; for HeLa SI: quotient of the IC50 values towards nonmalignant LO2 cells
Text: as §1

[3] = test system: human normal heptical cell line (LO2); assay: Cytotoxicity, MTT assay, non-malignant LO2; assay type: cell-based; conditions: 24 hours, non-malignant cells
Text: as §1

[4] = test system: human lung carcinoma cells (A549); assay: Cytotoxicity, MTT assay, A549; assay type: cell-based; conditions: for IC50: Homo sapiens, A549, MTT, 24 hours; for A549 SI: quotient of the IC50 values towards nonmalignant LO2 cells
Text: as §1

[5] = test system: human liver hepatocellular carcinoma cell line (Hepg2); assay: Cytotoxicity, MTT assay, HePG2; assay type: cell-based; conditions: for IC50: Homo sapiens, HepG2, MTT, 24 hours; for HePG2 SI: quotient of the IC50 values towards nonmalignant LO2 cells
Text: as §1, with “µg/mL.” for “µg/mL. Doxorubicin (DOX) and Curcumin were used as positive controls.”

[6] = test system: human carcinoma cell lines A549, SGC7901, HePG2, HeLa, K562, THP-1; assay: Cytotoxicity, MTT assay, panel of human carcinoma cell lines (average / overall); assay type: cell-based; conditions: average over the six carcinoma cell lines; for IC50: Homo sapiens, read-out: Ave IC50
Text: as §1
The cytotoxicity activities against human carcinoma cell lines A549, SGC7901, HePG2, HeLa, K562, THP-1 and cytotoxicity toward LO2 cell lines were evaluated by MTT method. DOX and curcumin were used as positive control. The selectivity index (SI) is the quotient of the IC50 values towards nonmalignant LO2 cells. […] Especially for 4a–e, 5a–d, and 6a–c, this ratio can reach about 92%.

[7] = test system: human gastric adenocarcinoma cells (SGC7901); assay: Cytotoxicity, MTT assay, SGC7901; assay type: cell-based; conditions: for IC50: Homo sapiens, SGC-7901, MTT, 24 hours; for SGC7901 SI: quotient of the IC50 values towards nonmalignant LO2 cells
Text: as §1

[8] = test system: human chronic myelogenous leukemia cell line (K562); assay: Cytotoxicity, MTT assay, K562; assay type: cell-based; conditions: for IC50: Homo sapiens, K562, MTT, 24 hours; for K562 SI: quotient of the IC50 values towards nonmalignant LO2 cells
Text: as §1

[9] = test system: HepG2 xenografts; assay: In vivo antitumor efficacy, HepG2-bearing nude mice; set-up: species or system Balb/c nude mice; conditions: DOX 1.0 mg/kg every two days for 20 days
Procedure: The antitumor effect was investigated on the seven-week-old female Balb/c nude mice (n = 30) weighing 19–21 grams (Shanghai Laboratory Animal Center). Briefly, 0.2 mL HepG2 cells (1 × 10^7/mL) were inoculated subcutaneously into the alar left of each mouse. On the third day after the inoculation, the HepG2-bearing mice were randomly divided into five groups (n = 6/group) and administrated the according drug or solvent. […] The control group was administrated of saline as negative control. The body weight and tumor volumes calculation were recorded from the day of treatment, and the tumor volumes were calculated using the following equation: tumor volume = length × (width)^2 × π/6. Animal experiments were reviewed and approved by the Binzhou Medical University Experimental Animal Committee.

Row | SMILES | IC50 [1] | THP-1 SI [1] | IC50 [2] | HeLa SI [2] | IC50 [3] | IC50 [4] | A549 SI [4] | IC50 [5] | HePG2 SI [5] | IC50 [6] | Ave SI [6] | IC50 [7] | SGC7901 SI [7] | IC50 [8] | K562 SI [8] | tumor growth inhibition [9]
1 | COc1ccc(/C=N/c2cccc(/C=C3\CN(C)C/C(=C\c4cccc(/N=C/c5ccc(OC)cc5O)c4)C3=O)c2)c(O)c1 [4d] | 1000 ± 30 nM | 12.3 | 4100 ± 100 nM | 2.8 | 11700 ± 100 nM | 2600 ± 500 nM | 4.4 | 1110 ± 100 nM | 10.6 | 2200 nM | 6.9 | 2300 ± 100 nM | 5.1 | 2000 ± 20 nM | 6.0 | –
2 | COc1cc(Br)cc(/C=N/c2cccc(/C=C3\CN(C)C/C(=C\c4cccc(/N=C/c5cc(Br)cc(OC)c5O)c4)C3=O)c2)c1O [4e] | 900 ± 100 nM | 11.8 | 2600 ± 100 nM | 4.2 | 10900 ± 200 nM | 1500 ± 300 nM | 7.2 | 1270 ± 20 nM | 8.6 | 1700 nM | 7.2 | 2000 ± 300 nM | 5.4 | 1800 ± 10 nM | 5.9 | –
3 | O=C1/C(=C/c2cc(/N=C/c3cccc(O)c3O)ccc2F)CNC/C1=C\c1cc(/N=C/c2cccc(O)c2O)ccc1F [5a] | 1000 ± 300 nM | 18.5 | 1100 ± 400 nM | 15.0 | 17600 ± 1000 nM | 2800 ± 200 nM | 6.4 | 1800 ± 50 nM | 9.7 | 1600 nM | 12.1 | 1600 ± 100 nM | 11.2 | 1500 ± 100 nM | 11.7 | –
4 | O=C1/C(=C/c2cc(/N=C/c3cc(O)ccc3O)ccc2F)CNC/C1=C\c1cc(/N=C/c2cc(O)ccc2O)ccc1F [5b] | 2200 ± 100 nM | 6.4 | 4200 ± 500 nM | 3.4 | 14100 ± 1000 nM | 3000 ± 100 nM | 4.8 | 3300 ± 200 nM | 4.3 | 3300 nM | 5.4 | 1300 ± 200 nM | 10.9 | 5700 ± 400 nM | 2.5 | –
5 | COc1ccc(/C=N/c2ccc(F)c(/C=C3\CNC/C(=C\c4cc(/N=C/c5ccc(OC)cc5O)ccc4F)C3=O)c2)c(O)c1 [5d] | 2100 ± 200 nM | 6.8 | 3800 ± 200 nM | 3.8 | 14600 ± 1260 nM | 2500 ± 100 nM | 5.8 | 2700 ± 200 nM | 5.6 | 2400 nM | 6.7 | 1800 ± 100 nM | 8.3 | 1500 ± 100 nM | 9.7 | –
6 | CN1C/C(=C\c2cc(/N=C/c3cccc(O)c3O)ccc2F)C(=O)/C(=C/c2cc(/N=C/c3cccc(O)c3O)ccc2F)C1 [6a] | 1500 ± 200 nM | 14.2 | 2200 ± 200 nM | 9.9 | 21700 ± 2000 nM | 1900 ± 100 nM | 11.6 | 2600 ± 100 nM | 8.4 | 2200 nM | 10.2 | 2400 ± 100 nM | 9.2 | 2800 ± 200 nM | 7.7 | –
7 | CN1C/C(=C\c2cc(/N=C/c3cc(O)ccc3O)ccc2F)C(=O)/C(=C/c2cc(/N=C/c3cc(O)ccc3O)ccc2F)C1 [6b] | 1800 ± 100 nM | 12.0 | 3400 ± 400 nM | 6.2 | 21300 ± 2000 nM | 2300 ± 100 nM | 9.1 | 2700 ± 200 nM | 7.8 | 3000 nM | 7.9 | 2600 ± 100 nM | 8.3 | 5100 ± 300 nM | 4.2 | –
8 | CN1C/C(=C\c2cc(/N=C/c3ccc(O)c(O)c3O)ccc2F)C(=O)/C(=C/c2cc(/N=C/c3ccc(O)c(O)c3O)ccc2F)C1 [6c] | 1600 ± 100 nM | 11.4 | 2500 ± 100 nM | 7.5 | 18400 ± 1000 nM | 1500 ± 200 nM | 12.5 | 2600 ± 200 nM | 7.1 | 2000 nM | 9.5 | 2000 ± 200 nM | 9.3 | 1900 ± 200 nM | 9.5 | –
9 | COc1cc(/C=C/C(=O)CC(=O)/C=C/c2ccc(O)c(OC)c2)ccc1O [Curcumin, reference compound] | 21700 ± 400 nM | 1.3 | 23800 ± 1300 nM | 1.2 | 27500 ± 400 nM | 19400 ± 200 nM | 1.4 | 16000 ± 200 nM | 1.7 | 20800 nM | 1.4 | 21500 ± 300 nM | 1.3 | 22100 ± 800 nM | 1.2 | –
10 | COc1cccc2c1C(=O)c1c(O)c3c(c(O)c1C2=O)C[C@@](O)(C(=O)CO)C[C@@H]3O[C@H]1C[C@H](N)[C@H](O)[C@H](C)O1 [DOX, Doxorubicin, reference compound] | 500 ± 200 nM | – | 2100 ± 300 nM | – | 6100 ± 500 nM | 3800 ± 100 nM | – | 600 ± 100 nM | – | 2600 nM | – | 7000 ± 400 nM | – | 1600 ± 200 nM | – | suppressed significantly
